Results: ChEMBL document CHEMBL1128255, “Synthesis of 11 beta-[18F]fluoro-5 alpha-dihydrotestosterone and 11 beta-[18F]fluoro-19-nor-5 alpha-dihydrotestosterone: preparation via halofluorination-reduction, receptor binding, and tissue distribution” (J Med Chem, 1995)

Experiments:
[1] = %ID/g is percent injected dose per gram of tissue and in vivo distribution of compound obtained after 1 hour in prostate (d)/biood; type: ADME, organism-based, Prostate gland; settings: other tissue
[2] = %ID/g is percent injected dose per gram of tissue and in vivo distribution of compound obtained after 1 hour in prostate (v); type: ADME, organism-based, Prostate gland
[3] = %ID/g is percent injected dose per gram of tissue and in vivo distribution of compound obtained after 2 hour in prostate (v); type: ADME, organism-based, Prostate gland
[4] = %ID/g is percent injected dose per gram of tissue and in vivo distribution of compound obtained after 4 hour in bone; type: ADME, organism-based, Bone element
[5] = %ID/g is percent injected dose per gram of tissue and in vivo distribution of compound obtained after 4 hour in fat; type: ADME, organism-based, Adipose tissue
[6] = %ID/g is percent injected dose per gram of tissue and in vivo distribution of compound obtained after 4 hour in liver; type: ADME, organism-based
[7] = %ID/g is percent injected dose per gram of tissue and in vivo distribution of compound obtained after 4 hour in lung; type: ADME, organism-based
[8] = %ID/g is percent injected dose per gram of tissue and in vivo distribution of compound obtained after 4 hour in muscle; type: ADME, organism-based
[9] = %ID/g is percent injected dose per gram of tissue and in vivo distribution of compound obtained after 4 hour in prostate (d); type: ADME, organism-based, Prostate gland
[10] = %ID/g is percent injected dose per gram of tissue and in vivo distribution of compound obtained after 4 hour in prostate (d)/biood; type: ADME, organism-based, Prostate gland
[11] = %ID/g is percent injected dose per gram of tissue and in vivo distribution of compound obtained after 4 hour in prostate (d)/muscle; type: ADME, organism-based
[12] = %ID/g is percent injected dose per gram of tissue and in vivo distribution of compound obtained after 4 hour in prostate (v); type: ADME, organism-based, Prostate gland
[13] = %ID/g is percent injected dose per gram of tissue and in vivo distribution of compound obtained after 4 hour in prostate (v)/blood; type: ADME, organism-based; settings: other tissue
[14] = %ID/g is percent injected dose per gram of tissue and in vivo distribution of compound obtained after 4 hour in prostate (v)/muscle; type: ADME, organism-based
[15] = %ID/g is percent injected dose per gram of tissue and in vivo distribution of compound obtained after 4 hour in spleen; type: ADME, organism-based
[16] = %ID/g is percent injected dose per gram of tissue and in vivo distribution of compound obtained after 2 hour in prostate (d)/biood; type: ADME, organism-based, Prostate gland
[17] = %ID/g is percent injected dose per gram of tissue and in vivo distribution of compound obtained after 1 hour in bladder; type: ADME, organism-based, Urinary bladder
[18] = %ID/g is percent injected dose per gram of tissue and in vivo distribution of compound obtained after 1 hour in blood; type: ADME, organism-based
[19] = %ID/g is percent injected dose per gram of tissue and in vivo distribution of compound obtained after 1 hour in fat; type: ADME, organism-based, Adipose tissue
[20] = %ID/g is percent injected dose per gram of tissue and in vivo distribution of compound obtained after 1 hour in lung; type: ADME, organism-based
[21] = %ID/g is percent injected dose per gram of tissue and in vivo distribution of compound obtained after 2 hour (low) in kidney; type: ADME, organism-based
[22] = %ID/g is percent injected dose per gram of tissue and in vivo distribution of compound obtained after 2 hour (low) in liver; type: ADME, organism-based
[23] = %ID/g is percent injected dose per gram of tissue and in vivo distribution of compound obtained after 2 hour (low) in prostate (d); type: ADME, organism-based, Prostate gland
[24] = %ID/g is percent injected dose per gram of tissue and in vivo distribution of compound obtained after 2 hour (low) in prostate (d)/biood; type: ADME, organism-based, Prostate gland
[25] = %ID/g is percent injected dose per gram of tissue and in vivo distribution of compound obtained after 2 hour (low) in prostate (d)/muscle; type: ADME, organism-based
[26] = %ID/g is percent injected dose per gram of tissue and in vivo distribution of compound obtained after 2 hour (low) in prostate (v); type: ADME, organism-based, Prostate gland
[27] = %ID/g is percent injected dose per gram of tissue and in vivo distribution of compound obtained after 2 hour (low) in spleen; type: ADME, organism-based
[28] = %ID/g is percent injected dose per gram of tissue and in vivo distribution of compound obtained after 2 hour in bladder; type: ADME, organism-based, Urinary bladder
[29] = %ID/g is percent injected dose per gram of tissue and in vivo distribution of compound obtained after 2 hour in blood; type: ADME, organism-based
[30] = %ID/g is percent injected dose per gram of tissue and in vivo distribution of compound obtained after 2 hour in bone; type: ADME, organism-based, Bone element
[31] = %ID/g is percent injected dose per gram of tissue and in vivo distribution of compound obtained after 2 hour in liver; type: ADME, organism-based
[32] = %ID/g is percent injected dose per gram of tissue and in vivo distribution of compound obtained after 2 hour in lung; type: ADME, organism-based
[33] = %ID/g is percent injected dose per gram of tissue and in vivo distribution of compound obtained after 2 hour (blocked) in kidney; type: ADME, organism-based
[34] = %ID/g is percent injected dose per gram of tissue and in vivo distribution of compound obtained after 2 hour (blocked) in liver; type: ADME, organism-based
[35] = %ID/g is percent injected dose per gram of tissue and in vivo distribution of compound obtained after 2 hour (blocked) in lung; type: ADME, organism-based
[36] = %ID/g is percent injected dose per gram of tissue and in vivo distribution of compound obtained after 2 hour (blocked) in muscle; type: ADME, organism-based
[37] = %ID/g is percent injected dose per gram of tissue and in vivo distribution of compound obtained after 2 hour (blocked) in prostate (d); type: ADME, organism-based, Prostate gland
[38] = %ID/g is percent injected dose per gram of tissue and in vivo distribution of compound obtained after 2 hour (blocked) in prostate (d)/muscle; type: ADME, organism-based
[39] = %ID/g is percent injected dose per gram of tissue and in vivo distribution of compound obtained after 2 hour (blocked) in prostate (v); type: ADME, organism-based, Prostate gland
[40] = %ID/g is percent injected dose per gram of tissue and in vivo distribution of compound obtained after 2 hour (blocked) in prostate (v)/blood; type: ADME, organism-based; settings: other tissue
[41] = %ID/g is percent injected dose per gram of tissue and in vivo distribution of compound obtained after 2 hour (blocked) in prostate (v)/muscle; type: ADME, organism-based
[42] = %ID/g is percent injected dose per gram of tissue and in vivo distribution of compound obtained after 2 hour (blocked) in spleen; type: ADME, organism-based
[43] = %ID/g is percent injected dose per gram of tissue and in vivo distribution of compound obtained after 2 hour (blocked)i n prostate (d)/biood; type: ADME, organism-based, Prostate gland
[44] = %ID/g is percent injected dose per gram of tissue and in vivo distribution of compound obtained after 2 hour (low) in bladder; type: ADME, organism-based, Urinary bladder
[45] = %ID/g is percent injected dose per gram of tissue and in vivo distribution of compound obtained after 2 hour (low) in blood; type: ADME, organism-based
[46] = %ID/g is percent injected dose per gram of tissue and in vivo distribution of compound obtained after 2 hour (low) in fat; type: ADME, organism-based, Adipose tissue
[47] = %ID/g is percent injected dose per gram of tissue and in vivo distribution of compound obtained after 1 hour in prostate (v)/muscle; type: ADME, organism-based
[48] = %ID/g is percent injected dose per gram of tissue and in vivo distribution of compound obtained after 1 hour in spleen; type: ADME, organism-based
[49] = %ID/g is percent injected dose per gram of tissue and in vivo distribution of compound obtained after 2 hour (blocked) in blood; type: ADME, organism-based
[50] = %ID/g is percent injected dose per gram of tissue and in vivo distribution of compound obtained after 2 hour (blocked) in fat; type: ADME, organism-based, Adipose tissue

## C[C@]12CCC(=O)C[C@@H]1CC[C@@H]1[C@@H]2[C@@H](F)C[C@]2(C)[C@@H](O)CC[C@@H]12
[1]
  ID/g: 5.16%
[2]
  ID/g: 0.486%
[3]
  ID/g: 0.317%
[4]
  ID/g: 0.072%
[5]
  ID/g: 0.012%
[6]
  ID/g: 0.415%
[7]
  ID/g: 0.035%
[8]
  ID/g: 0.017%
[9]
  ID/g: 0.291%
[10]
  ID/g: 10.827%
[11]
  ID/g: 17.573%
[12]
  ID/g: 0.327%
[13]
  ID/g: 12.249%
[14]
  ID/g: 19.715%
[15]
  ID/g: 0.02%
[16]
  ID/g: 10.642%
[17]
  ID/g: 1.245%
[18]
  ID/g: 0.092%
[19]
  ID/g: 0.061%
[20]
  ID/g: 0.111%
[21]
  ID/g: 0.145%
[22]
  ID/g: 0.228%
[23]
  ID/g: 0.229%
[24]
  ID/g: 11.358%
[25]
  ID/g: 9.78%
[26]
  ID/g: 0.212%
[27]
  ID/g: 0.017%
[28]
  ID/g: 0.165%
[29]
  ID/g: 0.038%
[30]
  ID/g: 0.061%
[31]
  ID/g: 0.451%
[32]
  ID/g: 0.069%
[33]
  ID/g: 0.2%
[34]
  ID/g: 0.468%
[35]
  ID/g: 0.039%
[36]
  ID/g: 0.023%
[37]
  ID/g: 0.074%
[38]
  ID/g: 3.089%
[39]
  ID/g: 0.069%
[40]
  ID/g: 1.357%
[41]
  ID/g: 2.895%
[42]
  ID/g: 0.026%
[43]
  ID/g: 1.465%
[44]
  ID/g: 0.263%
[45]
  ID/g: 0.022%
[46]
  ID/g: 0.02%
[47]
  ID/g: 8.208%
[48]
  ID/g: 0.048%
[49]
  ID/g: 0.048%
[50]
  ID/g: 0.026%

## C[C@]12C[C@H](F)[C@H]3[C@@H](CC[C@H]4CC(=O)CC[C@@H]43)[C@@H]1CC[C@@H]2O
[1]
  ID/g: 2.531%
[2]
  ID/g: 0.284%
[3]
  ID/g: 0.12%
[4]
  ID/g: 0.078%
[5]
  ID/g: 0.022%
[6]
  ID/g: 0.863%
[7]
  ID/g: 0.046%
[8]
  ID/g: 0.027%
[9]
  ID/g: 0.084%
[10]
  ID/g: 2.682%
[11]
  ID/g: 3.98%
[12]
  ID/g: 0.066%
[13]
  ID/g: 2.036%
[14]
  ID/g: 2.919%
[15]
  ID/g: 0.029%
[16]
  ID/g: 2.95%
[17]
  ID/g: 3.331%
[18]
  ID/g: 0.089%
[19]
  ID/g: 0.069%
[20]
  ID/g: 0.115%
[21]
  ID/g: 0.251%
[22]
  ID/g: 1.045%
[23]
  ID/g: 0.139%
[24]
  ID/g: 3.126%
[25]
  ID/g: 3.83%
[26]
  ID/g: 0.109%
[27]
  ID/g: 0.049%
[28]
  ID/g: 4.549%
[29]
  ID/g: 0.046%
[30]
  ID/g: 0.077%
[31]
  ID/g: 0.992%
[32]
  ID/g: 0.058%
[33]
  ID/g: 0.301%
[34]
  ID/g: 1.189%
[35]
  ID/g: 0.054%
[36]
  ID/g: 0.03%
[37]
  ID/g: 0.048%
[38]
  ID/g: 1.61%
[39]
  ID/g: 0.054%
[40]
  ID/g: 0.88%
[41]
  ID/g: 1.763%
[42]
  ID/g: 0.032%
[43]
  ID/g: 0.815%
[44]
  ID/g: 0.686%
[45]
  ID/g: 0.047%
[46]
  ID/g: 0.041%
[47]
  ID/g: 4.4%
[48]
  ID/g: 0.061%
[49]
  ID/g: 0.061%
[50]
  ID/g: 0.036%
